The values that follow come from publication PMC5159239 (Cell host & microbe, 2016).

The target of data set [1] is UL37C (571-1123) (Human alphaherpesvirus 1 strain 17, UniProt P10221). Kind of data set: tandem mass spectrometry of cysteine labelling. It counts as binding. Particulars: covalent at C819; 45 min; also tested at 1 µM.
Data set [2] concerns the molecule itself. Kind of data set: SEC.

Sequence of UL37C (571-1123) (P10221 571-1123): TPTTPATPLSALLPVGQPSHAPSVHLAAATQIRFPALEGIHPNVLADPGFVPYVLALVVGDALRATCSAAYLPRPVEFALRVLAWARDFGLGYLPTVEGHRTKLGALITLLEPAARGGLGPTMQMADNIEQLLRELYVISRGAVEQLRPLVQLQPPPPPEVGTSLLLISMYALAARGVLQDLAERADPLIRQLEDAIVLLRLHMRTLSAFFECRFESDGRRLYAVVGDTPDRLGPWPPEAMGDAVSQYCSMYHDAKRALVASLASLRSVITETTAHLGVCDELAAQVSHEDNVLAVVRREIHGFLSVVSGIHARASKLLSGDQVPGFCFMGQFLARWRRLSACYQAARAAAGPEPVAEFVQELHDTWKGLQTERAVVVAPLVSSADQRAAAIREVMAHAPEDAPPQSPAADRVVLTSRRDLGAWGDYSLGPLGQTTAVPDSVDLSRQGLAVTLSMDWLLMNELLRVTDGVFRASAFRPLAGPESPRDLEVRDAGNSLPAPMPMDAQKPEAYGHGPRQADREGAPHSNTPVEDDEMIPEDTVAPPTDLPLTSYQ

`O=C(CCl)NCO` [2-Chloro-N-(hydroxymethyl)acetamide]: the “% C819 labelled at 10 μM” value in data set [1] worked out at 42.5%.

B1: RIG-I-QQ (natural protein)
chain: MTTEQRRSLQAFQDYIRKTLDPTYILSYMAPWFREEEVQYIQAEKNNKGPMEAATLFLKFLLELQEEGWFRGFLDALDHAGYSGLYEAIESWDFKKIEKLEEYRLLLKRLQPEFKTRIIPTDIISDLSECLINQECEEILQICSTKGMMAGAEKLVECLLRSDKENWPKTLKLALEKERNKFSELWIVEKGIKDVETEDLEDKMETSDIQIFYQEDPECQNLSENSCPPSEVSDTNLYSPFKPRNYQLELALPAMKGKNTIICAPTGCGKTFVSLLICEHHLKKFPQGQKGKVVFFANQIPVYEQQKSVFSKYFERHGYRVTGISGATAENVPVEQIVENNDIIILTPQILVNNLKKGTIPSLSIFTLMIFDECHNTSKQHPYNMIMFNYLDQKLGGSSGPLPQVIGLTASVGVGDAKNTDEALDYICKLCASLDASVIATVKHNLEELEQVVYKPQKFFRKVESRISDKFKYIIAQLMRDTESLAKRICKDLEQLSQIQNREFGTQKYEQWIVTVQKACMVFQMPDKDEESRICKALFLYTSHLRKYQDALIISEHARMKDALDYLKDFFSNVRAAGFDEIEQDLTQRFEEKLQELESVSRDPSNENPKLEDLCFILQEEYHLNPETITILFVKTRALVDALKNWIEGNPKLSFLKPGILTGRGKTNQNTGMTLPAQKCILDAFKASGDHNILIATSVADEGIDIAQCNLVILYEYVGNVIKMIQTRGRGRARGSKCFLLTSNAGVIEKEQINMYKEKMMNDSILRLQTWDEAVFREKILHIQTHEKFIRDSQEKPKPVPDKENKKLLCRKCKALACYTADVRVIEECHYTVLGDAFKECFVSRPHPKPKQFSSFEKRAKIFCARQNCSHDWGIHVKYKTFEIPVIKIESFVVEDIATGVQTLYSKWKDFHFEKIPFDPAEMSK
With B1, in data set [2], the binding result is “binds”.
